Measured values published in PubChem BioAssay (NCI).
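How tested: cells in 96-well plates exposed to compound for 48 hours at five concentrations. GI50 = concentration required for 50% inhibition of growth. At the TGI there is no net growth.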

Columns and labels:
Assay in all cases: NCI tumour cell line growth inhibition, 48 h
786-0 renal = test system: 786-0 renal
A498 renal = test system: A498 renal
A549 NSCLC = test system: A549 NSCLC
ACHN renal = test system: ACHN renal
BT-549 breast = test system: BT-549 breast
CAKI-1 renal = test system: CAKI-1 renal
CCRF-CEM leukemia = test system: CCRF-CEM leukemia
COLO 205 colon = test system: COLO 205 colon
DU-145 prostate = test system: DU-145 prostate
EKVX NSCLC = test system: EKVX NSCLC
HCC-2998 colon = test system: HCC-2998 colon
HCT-15 colon = test system: HCT-15 colon
HL-60(TB) leukemia = test system: HL-60(TB) leukemia
HOP-62 NSCLC = test system: HOP-62 NSCLC
HOP-92 NSCLC = test system: HOP-92 NSCLC
HS 578T breast = test system: HS 578T breast
HT29 colon = test system: HT29 colon
IGROV1 ovarian = test system: IGROV1 ovarian
K-562 leukemia = test system: K-562 leukemia
KM12 colon = test system: KM12 colon
LOX IMVI melanoma = test system: LOX IMVI melanoma
M14 melanoma = test system: M14 melanoma
MALME-3M melanoma = test system: MALME-3M melanoma
MCF7 breast = test system: MCF7 breast
MDA-MB-231 breast = test system: MDA-MB-231 breast
MDA-MB-435 = test system: MDA-MB-435
MOLT-4 leukemia = test system: MOLT-4 leukemia
NCI-H226 lung = test system: NCI-H226 lung
NCI-H23 lung = test system: NCI-H23 lung
NCI-H460 lung = test system: NCI-H460 lung
NCI-H522 lung = test system: NCI-H522 lung
NCI/ADR-RES ovarian = test system: NCI/ADR-RES ovarian
OVCAR-3 ovarian = test system: OVCAR-3 ovarian
OVCAR-4 ovarian = test system: OVCAR-4 ovarian
OVCAR-5 ovarian = test system: OVCAR-5 ovarian
OVCAR-8 ovarian = test system: OVCAR-8 ovarian
PC-3 prostate = test system: PC-3 prostate
RPMI-8226 leukemia = test system: RPMI-8226 leukemia
RXF 393 renal = test system: RXF 393 renal
SF-268 CNS = test system: SF-268 CNS
SF-295 CNS = test system: SF-295 CNS
SF-539 CNS = test system: SF-539 CNS
SK-MEL-2 melanoma = test system: SK-MEL-2 melanoma
SK-MEL-28 melanoma = test system: SK-MEL-28 melanoma
SK-MEL-5 melanoma = test system: SK-MEL-5 melanoma
SK-OV-3 ovarian = test system: SK-OV-3 ovarian
SN12C renal = test system: SN12C renal
SNB-19 CNS = test system: SNB-19 CNS
SNB-75 CNS = test system: SNB-75 CNS
SR leukemia = test system: SR leukemia
SW-620 colon = test system: SW-620 colon
T-47D breast = test system: T-47D breast
TK-10 renal = test system: TK-10 renal
U251 CNS = test system: U251 CNS
UACC-257 melanoma = test system: UACC-257 melanoma
UACC-62 melanoma = test system: UACC-62 melanoma
UO-31 renal = test system: UO-31 renal
HCT-116 colon = test system: HCT-116 colon
MDA-N = test system: MDA-N

Structure (SMILES): Clc1nc(Cl)c2c(ncn2C/C=C\Cn2cnc3c(Cl)nc(Cl)nc32)n1
- GI50 (786-0 renal): 2.93 µM
- TGI (786-0 renal): 10.5 µM
- GI50 (A498 renal): 12.4 µM
- TGI (A498 renal): 25.6 µM
- GI50 (A549 NSCLC): 2.38 µM
- TGI (A549 NSCLC): 5.99 µM
- GI50 (ACHN renal): 1.83 µM
- TGI (ACHN renal): 3.33 µM
- GI50 (BT-549 breast): 1.61 µM
- TGI (BT-549 breast): 2.97 µM
- GI50 (CAKI-1 renal): 1.63 µM
- TGI (CAKI-1 renal): 3.83 µM
- GI50 (CCRF-CEM leukemia): 0.573 µM
- TGI (CCRF-CEM leukemia): 2.57 µM
- GI50 (COLO 205 colon): 1.46 µM
- TGI (COLO 205 colon): 3.01 µM
- GI50 (DU-145 prostate): 1.53 µM
- TGI (DU-145 prostate): 2.86 µM
- GI50 (EKVX NSCLC): 1.85 µM
- TGI (EKVX NSCLC): 3.5 µM
- GI50 (HCC-2998 colon): 1.5 µM
- TGI (HCC-2998 colon): 3.05 µM
- GI50 (HCT-15 colon): 1.5 µM
- TGI (HCT-15 colon): 3.2 µM
- GI50 (HL-60(TB) leukemia): 1.85 µM
- TGI (HL-60(TB) leukemia): > 100 µM
- GI50 (HOP-62 NSCLC): 2.35 µM
- TGI (HOP-62 NSCLC): 5.21 µM
- GI50 (HOP-92 NSCLC): 1.89 µM
- TGI (HOP-92 NSCLC): 3.58 µM
- GI50 (HS 578T breast): 1.44 µM
- TGI (HS 578T breast): 5.36 µM
- GI50 (HT29 colon): 1.4 µM
- TGI (HT29 colon): 2.73 µM
- GI50 (IGROV1 ovarian): 0.269 µM
- TGI (IGROV1 ovarian): 0.771 µM
- GI50 (K-562 leukemia): 0.801 µM
- TGI (K-562 leukemia): 21.1 µM
- GI50 (KM12 colon): 1.82 µM
- TGI (KM12 colon): 3.41 µM
- GI50 (LOX IMVI melanoma): 1.36 µM
- TGI (LOX IMVI melanoma): 2.85 µM
- GI50 (M14 melanoma): 2.79 µM
- TGI (M14 melanoma): 6.92 µM
- GI50 (MALME-3M melanoma): 2.22 µM
- TGI (MALME-3M melanoma): 4.2 µM
- GI50 (MCF7 breast): 1.45 µM
- TGI (MCF7 breast): 3.17 µM
- GI50 (MDA-MB-231 breast): 1.88 µM
- TGI (MDA-MB-231 breast): 3.65 µM
- GI50 (MDA-MB-435): 1.93 µM
- TGI (MDA-MB-435): 4.51 µM
- GI50 (MOLT-4 leukemia): 1.42 µM
- TGI (MOLT-4 leukemia): 3.25 µM
- GI50 (NCI-H226 lung): 1.76 µM
- TGI (NCI-H226 lung): 3.84 µM
- GI50 (NCI-H23 lung): 1.72 µM
- TGI (NCI-H23 lung): 3.93 µM
- GI50 (NCI-H460 lung): 2.34 µM
- TGI (NCI-H460 lung): 5.65 µM
- GI50 (NCI-H522 lung): 0.697 µM
- TGI (NCI-H522 lung): 2.1 µM
- GI50 (NCI/ADR-RES ovarian): 2.69 µM
- TGI (NCI/ADR-RES ovarian): 11.1 µM
- GI50 (OVCAR-3 ovarian): 1.68 µM
- TGI (OVCAR-3 ovarian): 3.04 µM
- GI50 (OVCAR-4 ovarian): 1.73 µM
- TGI (OVCAR-4 ovarian): 3.28 µM
- GI50 (OVCAR-5 ovarian): 1.96 µM
- TGI (OVCAR-5 ovarian): 3.74 µM
- GI50 (OVCAR-8 ovarian): 1.2 µM
- TGI (OVCAR-8 ovarian): 4.37 µM
- GI50 (PC-3 prostate): 2.31 µM
- TGI (PC-3 prostate): 5.58 µM
- GI50 (RPMI-8226 leukemia): 1.58 µM
- TGI (RPMI-8226 leukemia): 3.8 µM
- GI50 (RXF 393 renal): 0.351 µM
- TGI (RXF 393 renal): 0.906 µM
- GI50 (SF-268 CNS): 1.74 µM
- TGI (SF-268 CNS): 5.49 µM
- GI50 (SF-295 CNS): 8.99 µM
- TGI (SF-295 CNS): 21.1 µM
- GI50 (SF-539 CNS): 2.38 µM
- TGI (SF-539 CNS): 5.46 µM
- GI50 (SK-MEL-2 melanoma): 1.41 µM
- TGI (SK-MEL-2 melanoma): 2.73 µM
- GI50 (SK-MEL-28 melanoma): 1.66 µM
- TGI (SK-MEL-28 melanoma): 3.02 µM
- GI50 (SK-MEL-5 melanoma): 1.31 µM
- TGI (SK-MEL-5 melanoma): 2.79 µM
- GI50 (SK-OV-3 ovarian): 2.48 µM
- TGI (SK-OV-3 ovarian): 9.07 µM
- GI50 (SN12C renal): 1.8 µM
- TGI (SN12C renal): 6.14 µM
- GI50 (SNB-19 CNS): 1.66 µM
- TGI (SNB-19 CNS): 3.16 µM
- GI50 (SNB-75 CNS): 2.19 µM
- TGI (SNB-75 CNS): 6.68 µM
- GI50 (SR leukemia): 0.218 µM
- TGI (SR leukemia): 0.813 µM
- GI50 (SW-620 colon): 0.776 µM
- TGI (SW-620 colon): 2.12 µM
- GI50 (T-47D breast): 1.32 µM
- TGI (T-47D breast): 3.06 µM
- GI50 (TK-10 renal): 1.85 µM
- TGI (TK-10 renal): 3.45 µM
- GI50 (U251 CNS): 1.85 µM
- TGI (U251 CNS): 3.91 µM
- GI50 (UACC-257 melanoma): 1.48 µM
- TGI (UACC-257 melanoma): 5.9 µM
- GI50 (UACC-62 melanoma): 1.83 µM
- TGI (UACC-62 melanoma): 4.09 µM
- GI50 (UO-31 renal): 2.08 µM
- TGI (UO-31 renal): 4.35 µM

Structure (SMILES): CC1(C)Oc2ccc3c(=O)cc(-c4ccc(F)cc4)oc3c2C1C(=O)O (stereo not drawn)
- TGI (786-0 renal): > 100 µM
- TGI (A498 renal): > 100 µM
- TGI (A549 NSCLC): > 100 µM
- TGI (CAKI-1 renal): 54.6 µM
- TGI (CCRF-CEM leukemia): > 100 µM
- TGI (COLO 205 colon): > 100 µM
- TGI (DU-145 prostate): > 100 µM
- TGI (EKVX NSCLC): > 100 µM
- TGI (HCC-2998 colon): > 100 µM
- TGI (HCT-116 colon): > 100 µM
- TGI (HOP-62 NSCLC): > 100 µM
- TGI (HS 578T breast): > 100 µM
- TGI (HT29 colon): > 100 µM
- TGI (IGROV1 ovarian): > 100 µM
- TGI (K-562 leukemia): > 100 µM
- TGI (M14 melanoma): > 100 µM
- TGI (MALME-3M melanoma): > 100 µM
- TGI (MCF7 breast): > 100 µM
- TGI (MDA-MB-231 breast): > 100 µM
- TGI (MDA-MB-435): > 100 µM
- TGI (MDA-N): > 100 µM
- TGI (MOLT-4 leukemia): > 100 µM
- TGI (NCI-H226 lung): > 100 µM
- TGI (NCI-H23 lung): > 100 µM
- TGI (NCI-H522 lung): > 100 µM
- TGI (NCI/ADR-RES ovarian): > 100 µM
- TGI (OVCAR-3 ovarian): > 100 µM
- TGI (OVCAR-5 ovarian): > 100 µM
- TGI (OVCAR-8 ovarian): > 100 µM
- TGI (PC-3 prostate): > 100 µM
- TGI (RXF 393 renal): > 100 µM
- TGI (SF-268 CNS): > 100 µM
- TGI (SF-295 CNS): > 100 µM
- TGI (SF-539 CNS): > 100 µM
- TGI (SK-MEL-2 melanoma): > 100 µM
- TGI (SK-MEL-5 melanoma): > 100 µM
- TGI (SK-OV-3 ovarian): > 100 µM
- TGI (SN12C renal): > 100 µM
- TGI (SR leukemia): > 100 µM
- TGI (T-47D breast): > 100 µM
- TGI (TK-10 renal): > 100 µM
- TGI (U251 CNS): > 100 µM
- TGI (UACC-257 melanoma): > 100 µM
- TGI (UACC-62 melanoma): > 100 µM
